For assay [1], the system named is RKO cells. The assay is described as follows: RKO Methylation Assay (In Cell Western for mono-methyl arginine and DNA content). The assay is classed as cell-based. Conditions: Homo sapiens. The text has this: RKO adherent cells were purchased from ATCC (American Type Culture Collection), Manassas, Va., USA. DMEM/Glutamax medium, penicillin-streptomycin, heat inactivated fetal bovine serum, 0.05% trypsin and D-PBS were purchased from Life Technologies, Grand Island, N.Y., USA. Odyssey blocking buffer, 800CW goat anti-rabbit IgG (H+L) antibody, and Licor Odyssey infrared scanner were purchased from Licor Biosciences, Lincoln, Nebr., USA. Mono-methyl arginine antibody was purchased from Cell Signaling Technology, Danvers, Mass., USA. Methanol was purchased from VWR, Franklin, Mass., USA. 10% Tween 20 was purchased from KPL, Inc., Gaithersburg, Md., USA. DRAQ5 was purchased from Biostatus Limited, Leicestershire, UK.
RKO adherent cells were maintained in growth medium (DMEM/Glutamax medium supplemented with 10% v/v heat inactivated fetal bovine serum and 100 units/mL penicillin-streptomycin) and cultured at 37° C. under 5% CO2.
Cell Treatment, in Cell Western (ICW) for Detection of Mono-Methyl Arginine and DNA Content.
Compound (100 nL) from a 96-well source plate was added directly to 384 well cell plate. Plates were incubated at 37° C., 5% CO2 for 72 hours. After three days of incubation, plates were brought to room temperature outside of the incubator for ten minutes and blotted on paper towels to remove cell media. 50 μL of ice cold 100% methanol was added directly to each well and incubated for 30 min at room temperature. After 30 min, plates were transferred to a Biotek EL406 plate washer and washed 2 times with 100 μL per well of wash buffer (1×PBS). Next 60 μL per well of Odyssey blocking buffer (Odyssey Buffer with 0.1% Tween 20 (v/v)) were added to each plate and incubated 1 hour at room temperature. Blocking buffer was removed and 20 μL per well of primary antibody was added (mono-methyl arginine diluted 1:200 in Odyssey buffer with 0.1% Tween 20 (v/v)) and plates were incubated overnight (16 hours) at 4° C. Plates were washed 5 times with 100 µL per well of wash buffer. Next 20 μL per well of secondary antibody was added (1:200 800CW goat anti-rabbit IgG (H+L) antibody, 1:1000 DRAQ5 (Biostatus limited) in Odyssey buffer with 0.1% Tween 20 (v/v)) and incubated for 1 hour at room temperature. The plates were washed 5 times with 100 μL per well wash buffer then 2 times with 100 μL per well of water. Plates were allowed to dry at room temperature then imaged on the Licor Odyssey machine which measures integrated intensity at 700 nm and 800 nm wavelengths. Both 700 and 800 channels were scanned.
First, the ratio for each well was determined by:
Each plate included fourteen control wells of DMSO only treatment (minimum activation) as well as fourteen control wells for maximum activation treated with 20 μM of a reference compound. The average of the ratio values for each control type was calculated and used to determine the percent activation for each test well in the plate. Reference compound was serially diluted three-fold in DMSO for a total of nine test concentrations, beginning at 20 μM. Percent activation was determined and EC30 curves were generated using triplicate wells per concentration of compound.

The target of assay [2] is T1, PRMT1 (Homo sapiens, UniProt Q99873).
T1 construct: GST-tagged PRMT1; made in house; host or cells: High Five insect cells (baculovirus, pFastBacI)
The assay is described as follows: PRMT1 Biochemical Assay (3H-SAM Flashplate, histone H4 peptide substrate). The note with it: Biochemical IC50 (Numerical, μM) PRMT1, single experiment or average of multiple experiments, Table 2a. The text has this:
S-adenosylmethionine (SAM), S-adenosylhomocysteine (SAH), bicine, Tween20, dimethylsulfoxide (DMSO), bovine skin gelatin (BSG), and Tris(2-carboxyethyl)phosphine hydrochloride solution (TCEP) were purchased from Sigma-Aldrich at the highest level of purity possible. ^3H-SAM was purchase from American Radiolabeled Chemicals with a specific activity of 80 Ci/mmol. 384-well streptavidin Flashplates were purchased from PerkinElmer.
Recombinant baculovirus were generated according to Bac-to-Bac kit instructions (Life Technologies). Protein over-expression was accomplished by infecting exponentially growing High Five insect cell culture at 1.5×10^6 cell/ml with 1:100 ratio of virus. Infections were carried out at 27° C. for 48 hours, harvested by centrifugation, and stored at −80° C. for purification.
GST-tagged PRMT1 was eluted with 50 mM Tris, 2 mM glutathione, pH 7.8, dialysed in buffer A and concentrated to 1 mg/mL.
General Procedure for PRMT1 Enzyme Assays on Peptide Substrates.
The assays were all performed in a buffer consisting of 20 mM Bicine (pH=7.6), 1 mM TCEP, 0.005% BSG, and 0.002% Tween 20, prepared on the day of use. […] DMSO (1 ul) was added to Columns 11, 12, 23, 24, rows A-H for the maximum signal control and 1 ul of SAH, a known product and inhibitor of PRMT1, was added to columns 11, 12, 23, 24, rows I-P for the minimum signal control. A cocktail (40 ul) containing the PRMT1 enzyme was added by Multidrop Combi (Thermo-Fisher). The compounds were allowed to incubate with PRMT1 for 30 min at room temperature, then a cocktail (10 ul) containing SAM and peptide was added to initiate the reaction (final volume=51 ul). […] The assays were stopped by the addition of non-radiolabeled SAM (10 ul) to a final concentration of 300 uM, which dilutes the ^3H-SAM to a level where its incorporation into the peptide substrate is no longer detectable. […] The plates were then read in a PerkinElmer TopCount plate reader to measure the quantity of ^3H-labeled peptide bound to the Flashplate surface, measured as disintegrations per minute (dpm) or alternatively, referred to as counts per minute (cpm).
Where dpm=disintegrations per minute, cmpd=signal in assay well, and min and max are the respective minimum and maximum signal controls.
Where top and bottom are the normally allowed to float, but may be fixed at 100 or 0 respectively in a 3-parameter fit. The Hill Coefficient normally allowed to float but may also be fixed at 1 in a 3-parameter fit. Y is the % inhibition and X is the compound concentration.

Setting [3] is: RKO cells, 72 hours, mono-methyl arginine, class symbols, Table 3, read-out: In Cell Western data EC30.
The mark [4] stands for this setting: RKO cells, 72 hours, mono-methyl arginine, single experiment or average of multiple experiments, Table 3a, read-out: In Cell Western data (Numerical, μM) EC30.
Where [5] appears, read: RKO, 72 h, read-out: In Cell Western data (Numerical, μM) EC30.
The mark [6] stands for this setting: RKO, 72 h, read-out: In Cell Western data EC30.

Where two headings read alike, the source gives them in different places.

T1 sequence (Q99873 with tags, fused parts or gaps): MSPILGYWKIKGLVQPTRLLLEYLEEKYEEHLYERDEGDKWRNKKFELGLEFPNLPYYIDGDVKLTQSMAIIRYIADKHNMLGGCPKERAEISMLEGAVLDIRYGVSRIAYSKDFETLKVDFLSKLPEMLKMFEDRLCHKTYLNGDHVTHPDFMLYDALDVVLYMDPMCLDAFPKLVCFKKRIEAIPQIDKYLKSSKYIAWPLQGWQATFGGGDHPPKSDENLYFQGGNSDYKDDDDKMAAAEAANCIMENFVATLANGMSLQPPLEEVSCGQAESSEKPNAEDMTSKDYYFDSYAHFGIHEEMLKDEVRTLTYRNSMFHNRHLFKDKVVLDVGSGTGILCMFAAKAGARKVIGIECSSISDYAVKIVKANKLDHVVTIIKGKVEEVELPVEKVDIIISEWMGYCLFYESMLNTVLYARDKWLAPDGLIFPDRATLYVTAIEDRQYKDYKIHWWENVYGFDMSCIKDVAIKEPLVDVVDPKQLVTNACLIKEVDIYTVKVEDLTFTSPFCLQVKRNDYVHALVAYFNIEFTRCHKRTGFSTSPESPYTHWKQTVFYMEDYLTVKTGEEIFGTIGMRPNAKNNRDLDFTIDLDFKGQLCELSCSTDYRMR

One may read the EC30 as the concentration needed for an effect of 30%. As a reminder, the IC50 is the concentration at which inhibition is half-maximal. Take `CNCCN(C)Cc1n[nH]cc1-c1ccc(OCCOC)c(C(F)(F)F)c1` [Compound 21]: the EC30 in assay [1] (setting [3]) is below 3 µM; in assay [1] (setting [4]), 0.812 µM. In assay [2], this compound came in with an IC50 of 0.0328 µM.

For the compound `CNCCN(C)Cc1c[nH]nc1-c1ccc(CC(C)C)c(C(F)(F)F)c1` [Compound 34], the EC30 in assay [1] (setting [5]) is 0.955 µM; in assay [1] (setting [6]) it was below 3 µM. The IC50 in assay [2] is 0.00444 µM.

In the case of `CNCCN(C)Cc1c[nH]nc1-c1cc(OCCCC(F)(F)F)cc(C(F)(F)F)c1` [Compound 48], the EC30 in assay [1] (setting [3]) is 3.01 to 12 µM; in assay [1] (setting [4]), 4.2 µM. Half-maximal inhibition in assay [2] (IC50) was put at 0.0303 µM.

Regarding `CNCCN(C)Cc1c[nH]nc1-c1cc(OCCOC)cc(C(F)(F)F)c1` [Compound 16], the EC30 in assay [1] (setting [3]) was below 3 µM; in assay [1] (setting [4]), 2.24 µM. In assay [2], this compound returned an IC50 of 0.0204 µM.

Take `CNCCN(C)Cc1n[nH]cc1-c1cc(OCCOC)cc(C(F)(F)F)c1` [Compound 30]: the EC30 in assay [1] (setting [3]) is 3.01 to 12 µM; in assay [1] (setting [4]), 13.1 µM. Besides, half-maximal inhibition in assay [2] (IC50) was put at 0.109 µM.

As for `CNCCN(C)Cc1c[nH]nc1-c1cc(OCCOC)c(F)c(C(F)(F)F)c1` [Compound 64], the values for the EC30 in assay [1] (setting [5]) and in assay [1] (setting [6]) were 13.2 µM and above 12 µM, respectively. Moreover, it took 0.104 µM to reach half-maximal inhibition in assay [2] (IC50).

`CNCCN(C)Cc1c[nH]nc1-c1cc(OCCCC(C)=O)cc(C(F)(F)F)c1` [Compound 49]: the EC30 in assay [1] (setting [3]) is 3.01 to 12 µM; in assay [1] (setting [4]), 3.36 µM. The compound further came in with an IC50 in assay [2] of 0.0366 µM.

Take `CNCCN(C)Cc1c[nH]nc1-c1cc(Oc2ccccn2)cc(C(F)(F)F)c1` [Compound 52]: the EC30 in assay [1] (setting [3]) was 3.01 to 12 µM; in assay [1] (setting [4]) it was 4.44 µM. This compound displayed an IC50 in assay [2] of 0.0359 µM.

Take `CCC(CC)Oc1cc(-c2n[nH]cc2CN(C)CCNC)cc(C(F)(F)F)c1` [Compound 47]: the figures for the EC30 in assay [1] (setting [3]) and in assay [1] (setting [4]) were below 3 µM and 2.67 µM, respectively. Further, half-maximal inhibition in assay [2] (IC50) was put at 0.0135 µM.

For the compound `CCCOc1ccc(-c2c[nH]nc2CN(C)CCNC)cc1C(F)(F)F` [Compound 28], the EC30 in assay [1] (setting [3]) is below 3 µM; in assay [1] (setting [4]), 1.1 µM. The compound further registered an IC50 in assay [2] of 0.00659 µM.

Take `CNCCN(C)Cc1c[nH]nc1-c1cc(Cl)c(OC(C)C)c(C(F)(F)F)c1` [Compound 25]: the EC30 was 0.983 µM in assay [1] (setting [5]) and below 3 µM in assay [1] (setting [6]). Besides, inhibition in assay [2] was half-maximal at 0.0101 µM (IC50).

In the case of `CNCCN(C)Cc1c[nH]nc1-c1cc(Oc2ccncc2)cc(C(F)(F)F)c1` [Compound 38], the EC30 in assay [1] (setting [3]) was 3.01 to 12 µM; in assay [1] (setting [4]) it was 8.58 µM. 0.138 µM corresponded to half-maximal inhibition in assay [2] (IC50).

In the case of `CNCCN(C)Cc1c[nH]nc1-c1ccc(OCC(C)C)c(C(F)(F)F)c1` [Compound 10], the EC30 in assay [1] (setting [5]) was 0.537 µM; in assay [1] (setting [6]), below 3 µM. Also, the half-inhibitory concentration (IC50) in assay [2] amounted to 0.00451 µM.

Regarding `CNCCN(C)Cc1c[nH]nc1-c1cc(OCC2CCC2)cc(C(F)(F)F)c1` [Compound 44], the EC30 in assay [1] (setting [5]) is 4.52 µM; in assay [1] (setting [6]) it was 3.01 to 12 µM. In addition, in assay [2], the IC50 came out at 0.0132 µM.

As for `CNCCN(C)Cc1c[nH]nc1-c1cc(Oc2cccnc2)cc(C(F)(F)F)c1` [Compound 51], the EC30 in assay [1] (setting [3]) is 3.01 to 12 µM; in assay [1] (setting [4]), 6.9 µM. The compound also displayed an IC50 in assay [2] of 0.0513 µM.

For `CNCCN(C)Cc1c[nH]nc1-c1cc(OCCCOC)cc(C(F)(F)F)c1` [Compound 24], the EC30 in assay [1] (setting [3]) was 3.01 to 12 µM; in assay [1] (setting [4]), 4.02 µM. The compound further displayed a half-inhibitory concentration (IC50) in assay [2] of 0.0229 µM.

For the compound `CNCCN(C)Cc1n[nH]cc1-c1ccc(OCC(C)C)c(C(F)(F)F)c1` [Compound 18], the EC30 was below 3 µM in assay [1] (setting [3]) and 2.69 µM in assay [1] (setting [4]). This compound gave an IC50 in assay [2] of 0.00988 µM.

As for `CC(C)Oc1cc(-c2n[nH]cc2CN(C)CCN)cc(C(F)(F)F)c1` [Compound 6], the EC30 in assay [1] (setting [5]) is 10.8 µM; in assay [1] (setting [6]) it was 3.01 to 12 µM. Further, in assay [2], half-maximal inhibition (IC50) was put at 0.0687 µM.

For the compound `CC(C)Oc1ccc(-c2c[nH]nc2CN(C)CCN)cc1C(F)(F)F` [Compound 8], the EC30 in assay [1] (setting [3]) is below 3 µM; in assay [1] (setting [4]), 2.69 µM. For the same compound, in assay [2], inhibition was half-maximal at 0.0165 µM (IC50).

Consider `CNCCN(C)Cc1c[nH]nc1-c1cc(OCCc2ccccc2OC)cc(C(F)(F)F)c1` [Compound 50], for which the EC30 was 3.01 to 12 µM in assay [1] (setting [3]) and 4.37 µM in assay [1] (setting [4]). In assay [2], the IC50 turned out to be 0.0138 µM.

Turning to `CNCCN(C)Cc1c[nH]nc1-c1cc(C)c(OC2COC2)c(C(F)(F)F)c1` [Compound 66], the EC30 was 0.724 µM in assay [1] (setting [5]) and below 3 µM in assay [1] (setting [6]). The compound further had an IC50 in assay [2] of 0.00756 µM.

Consider `CNCCN(C)Cc1c[nH]nc1-c1cc(C)c(OCC2CCC2)c(C(F)(F)F)c1` [Compound 58], for which the EC30 in assay [1] (setting [5]) is 0.547 µM; in assay [1] (setting [6]), below 3 µM. This compound also had an IC50 in assay [2] of 0.00706 µM.

With `CNCCN(C)Cc1n[nH]cc1-c1ccc(OCCCOC)c(C(F)(F)F)c1` [Compound 20], the EC30 in assay [1] (setting [3]) is below 3 µM; in assay [1] (setting [4]), 2.04 µM. Besides, in assay [2], inhibition was half-maximal at 0.0553 µM (IC50).

For `CNCCN(C)Cc1c[nH]nc1-c1cc(OCc2ccccc2)cc(C(F)(F)F)c1` [Compound 37], the values for the EC30 in assay [1] (setting [3]) and in assay [1] (setting [4]) were 3.01 to 12 µM and 5 µM, respectively. This compound displayed an IC50 in assay [2] of 0.0185 µM.

Turning to `CN(CCN)Cc1c[nH]nc1-c1ccc(Oc2ccccc2)c(C(F)(F)F)c1` [Compound 23], the results for the EC30 in assay [1] (setting [5]) and in assay [1] (setting [6]) were 1.51 µM and below 3 µM, respectively. The compound also registered an IC50 in assay [2] of 0.00301 µM.

Values taken from US20160039767A1, “PYRAZOLE DERIVATIVES AS PRMT1 INHIBITORS AND USES THEREOF” (EPIZYME, INC., priority 2013, published 2016).
